Tested on: rats
Test: Loss of tail withdrawal reflex (LOTWR) in rats, single intravenous injection, dose escalation: potent analgesic effect and severe adverse reactions
Format: in vivo, SD rats
Conditions: Rattus norvegicus, single intravenous injection (tail vein), LOTWR lasting for 30 seconds as criterion, class symbol, read-out: The minimum effective dose
Protocol: (§1) Using the loss of tail withdrawal reflex (LOTWR) in rats as an indicator, the potent analgesic effect of the compounds according to the present invention was evaluated.
(§2) 1.1 Experimental animals: Adult male SD rats weighing between 220-300 g were selected for the experiment. The rats were housed in sawdust-bedded cages with a temperature of 25±1°C, humidity ranging from 40% to 60%, and a 12-hour light/12-hour dark cycle. Each cage contained no more than 5 rats, with free access to water and food.
(§3) • (1) The compound of the present invention, along with the positive control drug remifentanil and the negative control (vehicle), were administered in fixed volumes. A dose escalation approach was employed to determine the minimum effective dose at which the compound of the present invention produces potent analgesic effects, as well as the minimum dose at which severe adverse reactions first appear. • (2) LOTWR lasting for 30 seconds was used as the criterion for generating potent analgesic effects. During the experiment, drugs were administered via the tail vein of rats, with a dosage volume of 0.6 mL per rat and a dosage rate of 0.02 mL/s. Subsequently, an alligator clip was applied at a distance of 1 cm from the base of the rat's tail, clamping once longitudinally and once transversely before being left in place. Meanwhile, the distal end of the alligator clip was continuously oscillated (30 times/min) to continuously generate stimulation. […] When all results were "no LOTWR" after 10 minutes of testing (5 trials), the test was stopped and recorded as "ineffective." • (3) All compounds would undergo a dose escalation for efficacy evaluation, starting from 1 mg/kg (due to the high potency of remifentanil, the lowest dose was set at 1 µg/kg), followed by 5 mg/kg, 10 mg/kg, 20 mg/kg, and so on (increasing by 20 mg/kg increments after 20 mg/kg). The dose escalation would be stopped when rats show signs of death, and the lowest effective dose and the lowest dose at which severe adverse reactions occur would be recorded throughout the process. In this study, severe adverse reactions are defined as apnea, generalized tonic rigidity, convulsions, opisthotonus, seizures, etc.
(§4) 1.3 Evaluation indicators: the minimum effective dose; the minimum dose resulting in serious adverse reactions; the safety therapeutic index = "the minimum dose resulting in serious adverse reactions" / "the minimum effective dose".

SMILES | minimal effective dose [mg/kg]
Cc1ccc(CNC(=O)NCc2cccs2)c(N(C)C)c1 [Example 10] | ≤ 10
CN(C)c1cccc(CNC(=O)NCc2cccs2)c1 [Example 34] | 20 to 30
Cc1ccc(CNC(=NC#N)NCc2ccsc2)c(N(C)C)c1 [Example 4] | > 30
Cc1cc(C)cc(CNC(=O)NCc2ccc(C)cc2N(C)C)c1 [Example 63] | ≤ 10
Cc1ccc(CSC(=S)SCc2cccs2)c(N(C)C)c1 [Example 98] | > 30
Cc1ccc(CNC(=S)NCc2cccs2)c(N(C)C)c1 [Example 67] | ≤ 10
CN(C)c1cc(O)ccc1CNC(=O)NCc1ccsc1 [Example 15] | 10 to 20
CN(C)c1ccccc1NC(=O)Nc1ccns1 [Example 97] | > 30
CN(C)c1ccc(CNC(=O)NCc2cccs2)cc1 [Example 78] | 10 to 20
Cc1cc(CNC(=S)NCc2ccc(C)c(N(C)C)c2)n(C)n1 [Example 115] | ≤ 10
Cc1ccc(CNC(=O)Nc2ccn[nH]2)c(N(C)C)c1 [Example 104] | > 30
CN(C)c1ccccc1CNC(=S)NCc1cccs1 [Example 28] | > 30
Cc1ccc(NC(=N)Nc2ccsc2)cc1N(C)C [Example 21] | ≤ 10
Cc1ccc(CCNC(=S)Nc2cccs2)c(N(C)C)c1 [Example 81] | ≤ 10
Cc1ccc(CNC(=S)NCc2ccco2)c(N(C)C)c1 [Example 69] | ≤ 10
Cc1ccc(NC(=S)Nc2cccs2)c(N(C)C)c1 [Example 83] | ≤ 10
Cc1ccc(CNC(=N)NCc2ccno2)c(N(C)C)c1 [Example 92] | ≤ 10
CCCCc1cscc1CNC(=O)NCc1ccc(C)cc1N(C)C [Example 52] | ≤ 10
Cc1ccc(CNC(=N)NCc2ncc[nH]2)c(N(C)C)c1 [Example 75] | ≤ 10
Cc1ccc(CNC(=S)NCc2ccco2)cc1N(C)C [Example 71] | ≤ 10
Cc1ccc(CNC(=N)NCc2ccns2)c(N(C)C)c1 [Example 90] | ≤ 10
Cc1ccc(CNC(=O)OCc2ccsc2)c(N(C)C)c1 [Example 5] | ≤ 10
Cc1ccc(NC(=O)NCc2ncc[nH]2)c(N(C)C)c1 [Example 59] | 10 to 20
Cc1ccc(CNC(=S)NCc2ccoc2)c(N(C)C)c1 [Example 70] | 10 to 20
Cc1ccc(CNC(=S)NCc2cc3ccccc3s2)c(N(C)C)c1 [Example 93] | ≤ 10
CCCCc1ccc(CNC(=O)NCc2ccsc2)c(N(C)C)c1 [Example 53] | ≤ 10
CCCc1ccc(CNC(=S)NCc2cccs2)cc1N(C)C [Example 77] | ≤ 10
CNc1cc(C)ccc1CNC(=O)NCc1ccsc1 [Example 57] | 10 to 20
Cc1ccc(CNC(=S)NCc2cccs2)c(N2CCOCC2)c1 [Example 89] | ≤ 10
COC(=O)c1ccc(CNC(=O)NCc2ccc(C)cc2N(C)C)s1 [Example 50] | 20 to 30

Tested on: not listed separately
Test: as above
Format: in vivo, SD rats
Conditions: rat, in vivo, single intravenous injection, minimum dose resulting in serious adverse reactions / minimum effective dose, class symbol, read-out: The safety therapeutic index
Protocol: as §1, §2, §3, §4

SMILES | selectivity ratio
Cc1ccc(CNC(=O)NCc2cccs2)c(N(C)C)c1 [Example 10] | > 4
CN(C)c1cccc(CNC(=O)NCc2cccs2)c1 [Example 34] | ≤ 2
Cc1ccc(CNC(=NC#N)NCc2ccsc2)c(N(C)C)c1 [Example 4] | ≤ 2
Cc1cc(C)cc(CNC(=O)NCc2ccc(C)cc2N(C)C)c1 [Example 63] | ≤ 2
Cc1ccc(CSC(=S)SCc2cccs2)c(N(C)C)c1 [Example 98] | ≤ 2
Cc1ccc(CNC(=S)NCc2cccs2)c(N(C)C)c1 [Example 67] | > 4
CN(C)c1cc(O)ccc1CNC(=O)NCc1ccsc1 [Example 15] | > 4
CN(C)c1ccccc1NC(=O)Nc1ccns1 [Example 97] | ≤ 2
CN(C)c1ccc(CNC(=O)NCc2cccs2)cc1 [Example 78] | ≤ 2
Cc1cc(CNC(=S)NCc2ccc(C)c(N(C)C)c2)n(C)n1 [Example 115] | > 4
Cc1ccc(CNC(=O)Nc2ccn[nH]2)c(N(C)C)c1 [Example 104] | ≤ 2
CN(C)c1ccccc1CNC(=S)NCc1cccs1 [Example 28] | ≤ 2
Cc1ccc(NC(=N)Nc2ccsc2)cc1N(C)C [Example 21] | > 4
Cc1ccc(CCNC(=S)Nc2cccs2)c(N(C)C)c1 [Example 81] | 2 to 4
Cc1ccc(CNC(=S)NCc2ccco2)c(N(C)C)c1 [Example 69] | 2 to 4
Cc1ccc(NC(=S)Nc2cccs2)c(N(C)C)c1 [Example 83] | > 4
Cc1ccc(CNC(=N)NCc2ccno2)c(N(C)C)c1 [Example 92] | 2 to 4
CCCCc1cscc1CNC(=O)NCc1ccc(C)cc1N(C)C [Example 52] | 2 to 4
Cc1ccc(CNC(=N)NCc2ncc[nH]2)c(N(C)C)c1 [Example 75] | 2 to 4
Cc1ccc(CNC(=S)NCc2ccco2)cc1N(C)C [Example 71] | ≤ 2
Cc1ccc(CNC(=N)NCc2ccns2)c(N(C)C)c1 [Example 90] | 2 to 4
Cc1ccc(CNC(=O)OCc2ccsc2)c(N(C)C)c1 [Example 5] | 2 to 4
Cc1ccc(NC(=O)NCc2ncc[nH]2)c(N(C)C)c1 [Example 59] | 2 to 4
Cc1ccc(CNC(=S)NCc2ccoc2)c(N(C)C)c1 [Example 70] | ≤ 2
Cc1ccc(CNC(=S)NCc2cc3ccccc3s2)c(N(C)C)c1 [Example 93] | ≤ 2
CCCCc1ccc(CNC(=O)NCc2ccsc2)c(N(C)C)c1 [Example 53] | ≤ 2
CCCc1ccc(CNC(=S)NCc2cccs2)cc1N(C)C [Example 77] | 2 to 4
CNc1cc(C)ccc1CNC(=O)NCc1ccsc1 [Example 57] | ≤ 2
Cc1ccc(CNC(=S)NCc2cccs2)c(N2CCOCC2)c1 [Example 89] | 2 to 4
COC(=O)c1ccc(CNC(=O)NCc2ccc(C)cc2N(C)C)s1 [Example 50] | ≤ 2

— patent publication EP4786459A1, “BENZENE RING-CONTAINING COMPOUND HAVING ANALGESIC EFFECT, PREPARATION METHOD THEREFOR, AND USE THEREOF” (West China Hospital, Sichuan University, priority 2023, dated 2025)
